# From patent publication US10835624B2, “Compounds for imaging Tau protein aggregates” (AC IMMUNE S.A., priority 2016, dated 2020)
# Marks after values point to notes of the source that are not given here.
# Key:
# Tau = Tau (Homo sapiens, UniProt P10636); experiment: Tau competition binding in human AD brain homogenate with 18F-labeled Tau binder; parameters: High affinity to Tau (IC50 in AD brain homogenate): key: −: poor; ∘: moderate; +: good; ++: very good; +++: excellent; conditions: determined with non-radioactive F-1, F-2, F-3a; for IC50: human AD brain homogenate, read-out: IC50 for tau binding in AD brain homogenate
# Tau, sequence (P10636 623-708 limits assumed): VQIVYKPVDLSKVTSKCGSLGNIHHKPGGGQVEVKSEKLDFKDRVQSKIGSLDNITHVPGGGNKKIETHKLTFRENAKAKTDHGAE
# Description: (§1) 20 μg of human Alzheimer disease brain homogenate was incubated with a dilution series of each test compound (1000 to 0.06 nM) in the presence of 800 Bq of ^18F-labeled Tau binder. The samples were shaken at 110 rpm for 45 min at 37° C. Samples were then filtered through GF/B 96 well filter plates and washed twice with 300 μL assay buffer (PBS containing 0.1% BSA and 2% DMSO). Thereafter, filter plates were sealed and a Fuji Film Imaging Plate (BAS-SR2025) was placed on top. The imaging plate was analyzed after overnight exposition using a Fuji Film BAS-5000. Non-specific signal was determined with samples containing ^18F-labeled Tau-reference binder in the presence of assay buffer without brain substrate and competitor. […] The unblocked ^18F-labeled Tau-binder signal was defined as total binding. IC50 values were calculated by Prism V6 (GraphPad) setting total binding to 100%.
# amyloid-beta = amyloid-beta (Homo sapiens, UniProt P05067); experiment: Binding affinity to amyloid-beta in AD brain homogenate; conditions: non-radioactive derivatives; for IC50: human AD brain homogenate
# amyloid-beta, sequence (P05067 672-711 limits assumed): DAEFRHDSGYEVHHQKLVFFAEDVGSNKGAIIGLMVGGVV
# Description: as §1, with “beta-amyloid” for “Tau”, “beta-amyloid” for “Tau-reference”, “beta-amyloid binder” for “Tau-binder”
# MAO A [1] = target: T1, MAO A (Mus musculus, UniProt Q64133); experiment: MAO A 18F-FEH competition assay in mouse brain homogenate; format: binding; parameters: Low affinity to MAO A (IC50 in mouse brain homogenate): key to the marks not given beside the values; conditions: for IC50: 18F-FEH competition, read-out: IC50 MAO A in mouse brain homogenate
# T1 construct: from tissue; host or cells: whole mouse brain homogenate
# T1 sequence (Q64133 1-526): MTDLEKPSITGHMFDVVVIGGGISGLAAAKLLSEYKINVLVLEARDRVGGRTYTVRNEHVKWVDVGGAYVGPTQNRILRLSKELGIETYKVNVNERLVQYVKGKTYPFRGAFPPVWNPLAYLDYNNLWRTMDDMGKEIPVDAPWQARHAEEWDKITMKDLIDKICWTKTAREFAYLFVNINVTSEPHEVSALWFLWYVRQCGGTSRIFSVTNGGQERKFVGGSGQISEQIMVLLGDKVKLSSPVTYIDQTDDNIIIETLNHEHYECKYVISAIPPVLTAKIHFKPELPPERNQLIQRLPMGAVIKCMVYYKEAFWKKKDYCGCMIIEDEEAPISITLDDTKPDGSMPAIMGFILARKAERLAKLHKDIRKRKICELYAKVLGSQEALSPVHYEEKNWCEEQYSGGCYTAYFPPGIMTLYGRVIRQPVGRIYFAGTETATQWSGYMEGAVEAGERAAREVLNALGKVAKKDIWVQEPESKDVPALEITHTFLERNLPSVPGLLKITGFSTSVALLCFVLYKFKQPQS
# MAO A [2] = target: T2, MAO A (Homo sapiens, UniProt P21397); experiment: MAO A FEH competition assay in human HC brain homogenate; format: binding; parameters: Low affinity to MAO A (IC50 in HC homogenate): key: −: poor; ∘: moderate; +: good; ++: very good; +++: excellent; conditions: for IC50: human healthy control brain homogenate, FEH competition
# T2 construct: 20 μg of human brain homogenate (without AD pathology); from tissue; host or cells: human brain homogenate without AD pathology (healthy control)
# T2 sequence (P21397 1-527): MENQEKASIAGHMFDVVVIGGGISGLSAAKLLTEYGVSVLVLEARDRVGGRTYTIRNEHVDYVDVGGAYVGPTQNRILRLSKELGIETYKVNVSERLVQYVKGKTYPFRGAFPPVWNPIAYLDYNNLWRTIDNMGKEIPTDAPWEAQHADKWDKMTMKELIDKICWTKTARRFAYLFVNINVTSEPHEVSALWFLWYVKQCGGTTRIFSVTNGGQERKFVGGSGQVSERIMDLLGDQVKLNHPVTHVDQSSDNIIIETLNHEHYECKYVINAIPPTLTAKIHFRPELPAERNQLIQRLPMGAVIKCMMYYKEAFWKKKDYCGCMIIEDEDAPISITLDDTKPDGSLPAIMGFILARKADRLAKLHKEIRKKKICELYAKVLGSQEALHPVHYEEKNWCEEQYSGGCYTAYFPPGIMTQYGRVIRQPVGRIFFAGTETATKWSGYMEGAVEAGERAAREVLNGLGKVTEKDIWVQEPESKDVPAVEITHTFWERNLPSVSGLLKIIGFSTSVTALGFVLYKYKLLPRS
# Description: as §1, with “human” for “human Alzheimer disease”, “homogenate (without AD pathology)” for “homogenate”, “MAO-A binder ([^18F]fluoroethyl harmine, FEH).” for “Tau binder.”, “FEH” for “Tau-reference binder”, “FEH” for “Tau-binder”
# [3] = grade, non-radioactive derivatives
IC50 (Tau),IC50 (amyloid-beta),IC50 (MAO A [1]; non-radioactive derivatives),IC50 (MAO A [2]),High affinity to Tau (IC50 in AD brain homogenate) (Tau; grade),Low affinity to amyloid-beta (IC50 in AD brain homogenate) (amyloid-beta; grade),Low affinity to MAO A (IC50 in mouse brain homogenate) (MAO A [1]; [3]),Fold higher MAO A IC50 than compound 18F-1 (MAO A [1]; whole mouse brain homogenate),Fold higher MAO A IC50 than compound 18F-2 (MAO A [1]; whole mouse brain homogenate),Fold higher MAO A IC50 than compound 18F-1 (MAO A [2]; HC brain homogenate),Fold higher MAO A IC50 than compound 18F-2 (MAO A [2]; HC brain homogenate),Low affinity to MAO A (IC50 in HC homogenate) (MAO A [2]; [3]),Compound
< 2 nM,> 1000 nM,22 nM,5 nM,,,,,,,,,[18F]c1ccc(-c2ccc3c(c2)[nH]c2ccncc23)cn1 [^18F-1]
< 2 nM,> 1000 nM,475 nM,100 nM,,,,,,,,,[18F]c1ccc(-c2ccc3c(n2)[nH]c2ccncc23)cn1 [^18F-2]
< 2 nM,> 1000 nM,1400 nM,1100 nM,+++,+++^a),+++,64 fold,3 fold,220 fold,11 fold,+++,[18F]c1cc(-c2ccc3c(n2)[nH]c2ccncc23)ccn1 [^18F-3a]
